# Data published in patent US20250302051A1, “COMPOSITIONS WITH NANOPLATELET OXIDES OR HYDROXIDES AND METHODS OF PREPARING AND USING SAME” (Aqua Resources Corporation, priority 2024, published 2025).
# Legend:
# B. cereus (ATCC 14579) = test: Nanoplatelet composition vs antibiotic parallel test, B. cereus; format: cell-based
# MRSA (S. aureus) = test: Nanoplatelet composition vs antibiotic parallel test, MRSA; format: cell-based, Staphylococcus aureus
# Protocol: The nanoplatelet composition achieved total mitigation of MRSA from a 7 log pathogen population (10 million bacteria per mL) to zero in 3 hours. Levoflaxin, a commonly administered antibiotic used for treating MRSA, was tested at clinical doses and is shown as the dashed line. At various concentrations, the nanoplatelet composition eliminated MRSA more completely than levoflaxin after 24 hours with no rebound.
# S. aureus (VISA) = test: Nanoplatelet composition vs antibiotic parallel test, VISA; format: cell-based
# CRE (K. pneumoniae) = test: Nanoplatelet composition vs antibiotic parallel test, CRE K. pneumoniae; format: cell-based
# CRE (E. coli) = test: Nanoplatelet composition vs antibiotic parallel test, CRE E. coli; format: cell-based; conditions: within 24 hours; colistin 2 μg/mL; FIG. 8
compound,measurement,setting,value
O=C(O)c1cn(C2CC2)c2cc(N3CCNCC3)c(F)cc2c1=O [Cyproflaxin],Log Kill,B. cereus (ATCC 14579),0.5 Log
C[C@H]1COc2c(N3CCN(C)CC3)c(F)cc3c(=O)c(C(=O)O)cn1c23 [Levoflaxin],Log Kill,MRSA (S. aureus),4.5 Log
CC(=O)NC[C@H]1CN(c2ccc(N3CCOCC3)c(F)c2)C(=O)O1 [Linezolid],Log Kill,S. aureus (VISA),0.5 Log
CN(C)c1cc(NC(=O)CNC(C)(C)C)c(O)c2c1C[C@H]1C[C@H]3[C@H](N(C)C)C(O)=C(C(N)=O)C(=O)[C@@]3(O)C(O)=C1C2=O [Tigecycline],Log Kill,CRE (K. pneumoniae),8 Log
same,Time to Zero,CRE (K. pneumoniae),24 h
Colistin,rebound of bacteria population,CRE (E. coli),completely rebounded
